Data reported in patent US12077503B2, “Substituted cyclic amides and their use as herbicides” (FMC CORPORATION, priority 2015, dated 2024).

Experiments:
Assay type in all cases: in vivo
[1] = tested on: wheat (Triticum aestivum); assay: Test A postemergence; details: Triticum aestivum, post-emergence, 240 h, Postemergence, 31 g ai/ha; 0 is no effect, 100 is complete control; read-out: Wheat plant response rating (0 to 100 scale)
Method in brief: (§1)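 Each rating is a visual injury score from 0 to 100 given about 10 d after treatment, judged against untreated controls kept alongside in the greenhouse. In loam soil–sand blend, seeds got a preemergence directed soil spray, while postemergence plants were 2 to 10 cm tall at spraying.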

[2] = tested on: Galium (catchweed bedstraw, Galium aparine); assay: Test A postemergence; details: Galium, post-emergence, 240 h, read-out: Galium plant response rating (0 to 100 scale)
Method in brief: as §1

[3] = tested on: ryegrass, Italian (Italian ryegrass, Lolium multiflorum); assay: Test A postemergence; details: Lolium multiflorum, post-emergence, 240 h, read-out: Ryegrass, Italian plant response rating (0 to 100 scale)
Method in brief: as §1

[4] = tested on: pigweed (Amaranthus retroflexus); assay: Test A postemergence; details: Amaranthus retroflexus, post-emergence, 240 h, read-out: Pigweed plant response rating (0 to 100 scale)
Method in brief: as §1

[5] = tested on: ragweed (common ragweed, Ambrosia elatior); assay: Test A postemergence; details: Ambrosia artemisiifolia, post-emergence, 240 h, read-out: Ragweed plant response rating (0 to 100 scale)
Method in brief: as §1

Kochia (Kochia scoparia) [6] = assay: Test A postemergence; details: Bassia scoparia, post-emergence, 240 h, read-out: Kochia plant response rating (0 to 100 scale)
Method in brief: as §1

[7] = tested on: giant foxtail (Setaria faberii); assay: Test A postemergence; details: Setaria faberi, post-emergence, 240 h, read-out: Foxtail, Giant plant response rating (0 to 100 scale)
Method in brief: as §1

corn (Zea mays) = assay: Test A postemergence; details: Zea mays, post-emergence, 240 h, read-out: Corn plant response rating (0 to 100 scale)
Method in brief: as §1

[8] = tested on: barnyardgrass (Echinochloa crus-galli); assay: Test A postemergence; details: Echinochloa crus-galli, post-emergence, 240 h, read-out: Barnyardgrass plant response rating (0 to 100 scale)
Method in brief: as §1

[9] = tested on: blackgrass (Alopecurus myosuroides); assay: Test A postemergence; details: Alopecurus myosuroides, post-emergence, 240 h, read-out: Blackgrass plant response rating (0 to 100 scale)
Method in brief: as §1

[10] = tested on: ducksalad (Heteranthera limosa); assay: Test B flooded paddy test; details: Heteranthera limosa, 250 g ai/ha, Flood; 0 to 100 scale where 0 is no effect and 100 is complete control; read-out: Ducksalad plant response rating
Method in brief: (§2)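 Percent control, visually estimated after 13–15 d in the greenhouse on a 0–100 basis, compares treated pots with untreated ones; compound was put into paddy water 3 cm above the soil when plants had two leaves.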

[11] = tested on: barnyardgrass (Echinochloa crus-galli); assay: Test B flooded paddy test; details: Echinochloa crus-galli, 250 g ai/ha, Flood; 0 to 100 scale where 0 is no effect and 100 is complete control; read-out: Barnyardgrass plant response rating
Method in brief: as §2

rice (Oryra sativa) = assay: Test B flooded paddy test; details: Oryza sativa, 250 g ai/ha, Flood; 0 to 100 scale where 0 is no effect and 100 is complete control; read-out: Rice plant response rating
Method in brief: as §2

[12] = tested on: sedge, umbrella (small-flower umbrella sedge, Cyperus difformis); assay: Test B flooded paddy test; details: Cyperus difformis, 250 g ai/ha, Flood; 0 to 100 scale where 0 is no effect and 100 is complete control; read-out: Sedge, Umbrella plant response rating
Method in brief: as §2

[13] = tested on: ryegrass, Italian (Italian ryegrass, Lolium multiflorum); assay: Test A preemergence; details: Lolium multiflorum, pre-emergence, 240 h, 0 to 100 scale where 0 is no effect and 100 is complete control, read-out: Ryegrass, Italian plant response rating
Method in brief: as §1

[14] = tested on: pigweed (Amaranthus retroflexus); assay: Test A preemergence; details: Amaranthus retroflexus, pre-emergence, 240 h, 0 to 100 scale where 0 is no effect and 100 is complete control, read-out: Pigweed plant response rating
[15] = tested on: ragweed (common ragweed, Ambrosia elatior); assay: Test A preemergence; details: Ambrosia artemisiifolia, pre-emergence, 240 h, 0 to 100 scale where 0 is no effect and 100 is complete control, read-out: Ragweed plant response rating
Method in brief: as §1

Kochia (Kochia scoparia) [16] = assay: Test A preemergence; details: Bassia scoparia, pre-emergence, 240 h, 0 to 100 scale where 0 is no effect and 100 is complete control, read-out: Kochia plant response rating
Method in brief: as §1

[17] = tested on: giant foxtail (Setaria faberii); assay: Test A preemergence; details: Setaria faberi, pre-emergence, 240 h, 0 to 100 scale where 0 is no effect and 100 is complete control, read-out: Foxtail, Giant plant response rating
Method in brief: as §1

[18] = tested on: barnyardgrass (Echinochloa crus-galli); assay: Test A preemergence; details: Echinochloa crus-galli, pre-emergence, 240 h, 0 to 100 scale where 0 is no effect and 100 is complete control, read-out: Barnyardgrass plant response rating
Method in brief: as §1

[19] = 125 g ai/ha, postemergence, visual injury vs untreated controls after approx. 10 d, 0 = no effect, 100 = complete control
[20] = Postemergence, 31 g ai/ha, 0 is no effect, 100 is complete control
[21] = 125 g ai/ha, preemergence, visual injury rating, approximately 10 d

CN1C[C@H](c2ccc(F)c(Oc3ccccc3)c2)[C@@H](C(=O)Nc2cccc(F)c2F)C1=O [Compound 1259]
plant injury at 31 g/ha [1]: 0%
pest or weed control at 125 g/ha [2, 19]: 80%
pest or weed control at 31 g/ha [2, 20]: 60%
pest or weed control at 125 g/ha [3, 19]: 0%
pest or weed control at 31 g/ha [3, 20]: 0%
pest or weed control at 125 g/ha [4, 19]: 60%
pest or weed control at 31 g/ha [4, 20]: 40%
pest or weed control at 125 g/ha [5, 19]: 0%
pest or weed control at 31 g/ha [5, 20]: 0%
pest or weed control at 125 g/ha (Kochia (Kochia scoparia) [6]; [19]): 0%
pest or weed control at 31 g/ha (Kochia (Kochia scoparia) [6]; [20]): 0%
pest or weed control at 125 g/ha [7, 19]: 70%
pest or weed control at 31 g/ha [7, 20]: 30%
plant injury at 125 g/ha (corn (Zea mays); [19]): 70%
plant injury at 31 g/ha (corn (Zea mays); [20]): 0%
pest or weed control at 125 g/ha [8, 19]: 80%
pest or weed control at 31 g/ha [8, 20]: 30%
pest or weed control at 125 g/ha [9, 19]: 0%
pest or weed control at 31 g/ha [9, 20]: 0%
pest or weed control at 250 g/ha [10]: 0%
pest or weed control at 250 g/ha [11]: 0%
pest or weed control at 250 g/ha (rice (Oryra sativa)): 0%
pest or weed control at 250 g/ha [12]: 0%
pest or weed control at 31 g/ha ([13]; 31 g ai/ha, Preemergence): 0%
pest or weed control at 125 g/ha [13, 21]: 30%
pest or weed control at 31 g/ha ([14]; 31 g ai/ha, Preemergence): 30%
pest or weed control at 125 g/ha [14, 21]: 30%
pest or weed control at 31 g/ha ([15]; 31 g ai/ha, Preemergence): 0%
pest or weed control at 125 g/ha [15, 21]: 0%
pest or weed control at 31 g/ha (Kochia (Kochia scoparia) [16]; 31 g ai/ha, Preemergence): 0%
pest or weed control at 125 g/ha (Kochia (Kochia scoparia) [16]; [21]): 0%
pest or weed control at 31 g/ha ([17]; 31 g ai/ha, Preemergence): 40%
pest or weed control at 125 g/ha [17, 21]: 90%
pest or weed control at 31 g/ha ([18]; 31 g ai/ha, Preemergence): 0%
pest or weed control at 125 g/ha [18, 21]: 60%
